Experimental data taken from PubChem BioAssay (NCI).
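Each compound was tested at five concentrations against cells in 96-well plates for 48 hours. The concentration for full growth arrest is given as TGI.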

Key:
Assay in all cases: growth of human tumour cells (NCI), 48 h
[1] = test system: SW-620 colon
[2] = test system: UACC-62 melanoma
[3] = test system: EKVX NSCLC
[4] = test system: HOP-92 NSCLC
[5] = test system: MALME-3M melanoma
[6] = test system: PC-3 prostate
[7] = test system: SF-539 CNS
[8] = test system: OVCAR-4 ovarian
[9] = test system: OVCAR-3 ovarian
[10] = test system: NCI/ADR-RES ovarian
[11] = test system: IGROV1 ovarian
[12] = test system: UO-31 renal
[13] = test system: HOP-62 NSCLC
[14] = test system: K-562 leukemia
[15] = test system: NCI-H460 lung
[16] = test system: SF-268 CNS
[17] = test system: NCI-H522 lung
[18] = test system: COLO 205 colon
[19] = test system: MCF7 breast
[20] = test system: MDA-N
[21] = test system: CCRF-CEM leukemia
[22] = test system: UACC-257 melanoma
[23] = test system: DU-145 prostate
[24] = test system: TK-10 renal
[25] = test system: A498 renal
[26] = test system: SK-MEL-28 melanoma
[27] = test system: SNB-19 CNS
[28] = test system: OVCAR-5 ovarian
[29] = test system: OVCAR-8 ovarian
[30] = test system: HCT-15 colon
[31] = test system: SK-OV-3 ovarian
[32] = test system: MDA-MB-231 breast
[33] = test system: SF-295 CNS
[34] = test system: SN12C renal
[35] = test system: A549 NSCLC
[36] = test system: M14 melanoma
[37] = test system: NCI-H23 lung
[38] = test system: LOX IMVI melanoma
[39] = test system: T-47D breast
[40] = test system: HT29 colon
[41] = test system: MOLT-4 leukemia
[42] = test system: RPMI-8226 leukemia
[43] = test system: RXF 393 renal
[44] = test system: MDA-MB-435
[45] = test system: KM12 colon
[46] = test system: ACHN renal
[47] = test system: U251 CNS
[48] = test system: SK-MEL-5 melanoma
[49] = test system: 786-0 renal
[50] = test system: HL-60(TB) leukemia
[51] = test system: HCT-116 colon
[52] = test system: HS 578T breast
[53] = test system: SK-MEL-2 melanoma
[54] = test system: SR leukemia
[55] = test system: BT-549 breast
[56] = test system: HCC-2998 colon
[57] = test system: CAKI-1 renal
[58] = test system: NCI-H226 lung

Q: With `COC(=O)c1c(C)nc(C)c(N=O)c1-c1ccccc1C(F)(F)F` as the compound, how does the TGI [1] read?
A: 30.1 µM

Q: What about the TGI [2] of the same compound?
A: > 100 µM

Q: What about the TGI [3] of the same compound?
A: > 100 µM

Q: What about the TGI [4] of the same compound?
A: 34.8 µM

Q: And the TGI [5]?
A: 30.2 µM

Q: And the TGI [6]?
A: > 100 µM

Q: And the TGI [7]?
A: 45.8 µM

Q: And the TGI [8]?
A: 31.8 µM

Q: What about the TGI [9] of the same compound?
A: 31.3 µM

Q: And the TGI [10]?
A: 44.5 µM

Q: And the TGI [11]?
A: 33.9 µM

Q: And the TGI [12]?
A: 37.1 µM

Q: What about the TGI [13] of the same compound?
A: > 100 µM

Q: What about the TGI [14] of the same compound?
A: > 100 µM

Q: What about the TGI [15] of the same compound?
A: > 100 µM

Q: What about the TGI [16] of the same compound?
A: 30.8 µM

Q: And the TGI [17]?
A: 18.7 µM

Q: What about the TGI [18] of the same compound?
A: > 100 µM

Q: And the TGI [19]?
A: 40.8 µM

Q: What about the TGI [20] of the same compound?
A: 43.6 µM

Q: And the TGI [21]?
A: > 100 µM

Q: And the TGI [22]?
A: 32.8 µM

Q: And the TGI [23]?
A: > 100 µM

Q: And the TGI [24]?
A: 30 µM

Q: And the TGI [25]?
A: > 100 µM

Q: What about the TGI [26] of the same compound?
A: 28.4 µM

Q: And the TGI [27]?
A: > 100 µM

Q: And the TGI [28]?
A: 51.4 µM

Q: And the TGI [29]?
A: 35.6 µM

Q: What about the TGI [30] of the same compound?
A: 45.8 µM

Q: And the TGI [31]?
A: > 100 µM

Q: And the TGI [32]?
A: 32.3 µM

Q: What about the TGI [33] of the same compound?
A: > 100 µM

Q: And the TGI [34]?
A: 38.6 µM

Q: What about the TGI [35] of the same compound?
A: > 100 µM

Q: And the TGI [36]?
A: 47.1 µM

Q: And the TGI [37]?
A: 48.5 µM

Q: And the TGI [38]?
A: 30.8 µM

Q: And the TGI [39]?
A: 39.5 µM

Q: And the TGI [40]?
A: 29.1 µM

Q: What about the TGI [41] of the same compound?
A: > 100 µM

Q: And the TGI [42]?
A: > 100 µM

Q: And the TGI [43]?
A: 29.7 µM

Q: And the TGI [44]?
A: 56.3 µM

Q: And the TGI [45]?
A: 35.9 µM

Q: What about the TGI [46] of the same compound?
A: > 100 µM

Q: What about the TGI [47] of the same compound?
A: 34.5 µM

Q: And the TGI [48]?
A: 89.4 µM

Q: And the TGI [49]?
A: 31.5 µM

Q: And the TGI [50]?
A: > 100 µM

Q: And the TGI [51]?
A: 31.8 µM

Q: What about the TGI [52] of the same compound?
A: 44.8 µM

Q: What about the TGI [53] of the same compound?
A: > 100 µM

Q: And the TGI [54]?
A: > 100 µM

Q: And the TGI [55]?
A: 33.6 µM

Q: What about the TGI [56] of the same compound?
A: > 100 µM

Q: And the TGI [57]?
A: 23 µM

Q: And the TGI [58]?
A: 43.2 µM
